Broadly, the IC50 is the concentration that inhibits the measured activity by half.

In the experiment the target is T1, recombinant human c-MET kinase enzyme domain (Homo sapiens, UniProt P08581).
T1 construct: Recombinant c-Met kinase domain (amino acids 960-1390); His (N); made in house; host or cells: baculovirus expression system (insect cells; SF21 is named only for the alternative format)
T1 sequence (P08581 960-1390): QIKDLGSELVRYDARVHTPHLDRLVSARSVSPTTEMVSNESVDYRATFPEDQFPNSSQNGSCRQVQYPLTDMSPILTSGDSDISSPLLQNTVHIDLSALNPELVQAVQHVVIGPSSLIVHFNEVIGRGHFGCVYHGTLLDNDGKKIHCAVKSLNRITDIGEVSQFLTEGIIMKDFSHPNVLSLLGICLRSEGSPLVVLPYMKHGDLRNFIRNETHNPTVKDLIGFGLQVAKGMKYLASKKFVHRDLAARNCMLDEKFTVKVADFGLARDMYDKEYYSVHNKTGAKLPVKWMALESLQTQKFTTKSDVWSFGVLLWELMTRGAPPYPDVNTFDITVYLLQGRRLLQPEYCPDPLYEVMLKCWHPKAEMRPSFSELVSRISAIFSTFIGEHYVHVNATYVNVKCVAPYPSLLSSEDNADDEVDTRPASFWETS
The experiment can be described thus: c-MET receptor tyrosine kinase Homogeneous Time Resolved Fluorescence assay (HTRF). In kind it is biochemical. As to conditions: Biological Example 1 and/or Biological Example 2. The text has this: Recombinant c-Met kinase domain (amino acids 960-1390) was produced in a baculovirus expression vector as an N-terminal His-tagged fusion protein and purified on a NiNTA column. The resulting purified enzyme was then used in the following c-Met Homogeneous Time Resolved Fluorescence assay (HTRF) to find compounds of the invention and to perform initial activity determinations. Specifically, this assay measures the ability of compounds of the invention to inhibit the phosphorylation of a randomly synthesized, biotinylated heterocopolymeric polypeptide composed of glutamic acid and tyrosine, with an average length of 100 aa. The assay analyzes the amount of phosphorylated polypeptide produced.
The enzymatic phosphorylation of the biotinylated heterocopolymeric polypeptide was performed in a black 384-well plate at ambient temperature in a reaction mixture containing 50 mM HEPES (pH 7.4), 5 mM MgCl2, 5 mM MnCl2, 0.01% Tween-20, and 2 mM DTT, […] recombinant human c-MET kinase enzyme domain, 37 nM biotinylated heterocopolymeric polypeptide composed of glutamic acid and tyrosine, 20 μM ATP, 1% DMSO in the absence or presence of a compound of the invention. The reaction was stopped after a 20-minute incubation by the addition of 80 mM EDTA.
The formation of phosphorylated heterocopolymeric, biotinylated polypeptide was quantified with the HTRF assay technology using an anti-phosphotyrosine antibody, PT66, conjugated to europium cryptate, mixed with a streptavidin-XL665 conjugate. Reduced or inhibited phosphorylation of the heterocopolymeric, biotinylated polypeptide prevents the anti-phosphotyrosine antibody from binding to the peptide, resulting in a loss of energy transfer to the streptavidin-XL665 conjugate.
Following the 384-well enzymatic phosphorylation reaction outlined above, the detection of phosphorylated heterocopolymeric, biotinylated polypeptide was performed by dilution of the stopped reaction mixture 2-fold with 50 mM HEPES (pH 7.0), 500 mM KF, 0.1% BSA, streptavidin-XL665 (20 nM), and anti-phosphotyrosine antibody PT66-crypate conjugate (6.4 ng/well) and incubation for four hours at ambient temperature. Plates were read in an Envision plate reader (PerkinElmer Life and Analytical Sciences, Inc., MA) simultaneously at 620 nm and 665 nm to obtain signal ratios of 665 nm/620 nm. Results of energy transfer were expressed as signal ratios of 665 nm/620 nm. Negative controls were samples without recombinant c-MET or c-MET treated with 100 mM EDTA.
For determination of IC50 values of particular compounds of the invention, eight serially diluted compound concentrations (at 1:3.16 dilution) were used in the assay. Controls without a compound of the invention or with a reference compound were run in parallel in the same assay plate.
As to `CC1=C(C#N)C(c2cccc(C(=O)Nc3ccc(CO)cn3)c2)C(C#N)=C(C)N1` [compound 72, 3-(3,5-dicyano-1,4-dihydro-2,6-dimethyl-4-pyridinyl)-N-[5-(hydroxymethyl)-2-pyridinyl]-benzamide], the IC50 was in the range of 100 to 500 nM.

Consider `CC1=C(C#N)C(c2cccc(C(=O)Nc3ccc(CN(C)C)cn3)c2)C(C#N)=C(C)N1` [compound 76, 3-(3,5-dicyano-1,4-dihydro-2,6-dimethyl-4-pyridinyl)-N-[5-[(dimethylamino)methyl]-2-pyridinyl]-benzamide], for which the IC50 was 100 to 500 nM.

For `CC1=C(C#N)C(c2ccc3[nH]ncc3c2)C(C#N)=C(C)N1` [compound 80, 1,4-dihydro-4-(1H-indazol-5-yl)-2,6-dimethyl-3,5-pyridinedicarbonitrile], the IC50 was less than 100 nM.

In the case of `CC1=C(C#N)C(c2ccc3[nH]nc(C)c3c2)C(C#N)=C(C)N1` [compound 81, 1,4-dihydro-2,6-dimethyl-4-(3-methyl-1H-indazol-5-yl)-3,5-pyridinedicarbonitrile], the concentration for half-maximal inhibition (IC50) is less than 100 nM.

Consider `CC1=C(C#N)C(c2ccc3[nH]nc(N)c3c2)C(C#N)=C(C)N1` [compound 82, 4-(3-amino-1H-indazol-5-yl)-1,4-dihydro-2,6-dimethyl-3,5-pyridinedicarbonitrile], for which the half-maximal inhibitory concentration (IC50) was less than 100 nM.

With `CC1=C(C#N)C(c2ccc3[nH]nc(CN4CCOCC4)c3c2)C(C#N)=C(C)N1` [compound 83, 1,4-dihydro-2,6-dimethyl-4-[3-(4-morpholinylmethyl)-1H-indazol-5-yl]-3,5-pyridinedicarbonitrile], the concentration for half-maximal inhibition (IC50) lay within 500 to 2500 nM.

In the case of `COc1cccc(-c2n[nH]c3ccc(C4C(C#N)=C(C)NC(C)=C4C#N)cc23)c1` [compound 84, 1,4-dihydro-4-[3-(3-methoxyphenyl)-1H-indazol-5-yl]-2,6-dimethyl-3,5-pyridinedicarbonitrile], the 50% inhibitory concentration (IC50) was 100 to 500 nM.

In the case of `COC(=O)c1n[nH]c2ccc(C3C(C#N)=C(C)NC(C)=C3C#N)cc12` [compound 85, 5-(3,5-dicyano-1,4-dihydro-2,6-dimethyl-4-pyridinyl)-1H-indazole-3-carboxylic acid methyl ester], the 50% inhibitory concentration (IC50) was 500 to 2500 nM.

On to `CC1=C(C#N)C(c2ccc3[nH]nc(C(=O)O)c3c2)C(C#N)=C(C)N1` [compound 86, 5-(3,5-dicyano-1,4-dihydro-2,6-dimethyl-4-pyridinyl)-1H-indazole-3-carboxylic acid], for which the IC50 is less than 100 nM.

For `CC1=C(C#N)C(c2ccc3[nH]nc(-c4cccnc4)c3c2)C(C#N)=C(C)N1` [compound 87, 1,4-dihydro-2,6-dimethyl-4-[3-(3-pyridinyl)-1H-indazol-5-yl]-3,5-pyridinedicarbonitrile], the IC50 was less than 100 nM.

Turning to `CC1=C(C#N)C(c2ccc3[nH]nc(-c4ccccn4)c3c2)C(C#N)=C(C)N1` [compound 88, 1,4-dihydro-2,6-dimethyl-4-[3-(2-pyridinyl)-1H-indazol-5-yl]-3,5-pyridinedicarbonitrile], the 50% inhibitory concentration (IC50) is less than 100 nM.

On to `CC(=O)Nc1n[nH]c2ccc(C3C(C#N)=C(C)NC(C)=C3C#N)cc12` [compound 89, N-[5-(3,5-dicyano-1,4-dihydro-2,6-dimethyl-4-pyridinyl)-1H-indazol-3-yl]-acetamide], for which the half-maximal inhibitory concentration (IC50) was less than 100 nM.

`CC1=C(C#N)C(c2ccc3[nH]nc(CNc4cccnc4)c3c2)C(C#N)=C(C)N1` [compound 91, 1,4-dihydro-2,6-dimethyl-4-[3-[(3-pyridinylamino)methyl]-1H-indazol-5-yl]-3,5-pyridinedicarbonitrile]: the IC50 is less than 100 nM.

On to `CC1=C(C#N)C(c2ccc3c(c2)c(N)nn3C(=O)OC(C)(C)C)C(C#N)=C(C)N1` [compound 92, 3-amino-5-(3,5-dicyano-1,4-dihydro-2,6-dimethyl-4-pyridinyl)-1H-indazole-1-carboxylic acid tert-butyl ester], for which the half-inhibitory concentration (IC50) lay in the range of 100 to 500 nM.

As to `CC1=C(C#N)C(c2ccc3[nH]nc(I)c3c2)C(C#N)=C(C)N1` [compound 93, 1,4-dihydro-4-(3-iodo-1H-indazol-5-yl)-2,6-dimethyl-3,5-pyridinedicarbonitrile], the 50% inhibitory concentration (IC50) is less than 100 nM.

In the case of `CC1=C(C#N)C(c2ccc3c(c2)c(N)nn3C(=O)c2ccccc2)C(C#N)=C(C)N1` [compound 95, 4-(3-amino-1-benzoyl-1H-indazol-5-yl)-1,4-dihydro-2,6-dimethyl-3,5-pyridinedicarbonitrile], the 50% inhibitory concentration (IC50) is less than 100 nM.

`CC1=C(C#N)C(c2ccc3[nH]nc(NCc4ccccc4)c3c2)C(C#N)=C(C)N1` [compound 105, 1,4-dihydro-2,6-dimethyl-4-[3-[(phenylmethyl)amino]-1H-indazol-5-yl]-3,5-pyridinedicarbonitrile]: the 50% inhibitory concentration (IC50) was less than 100 nM.

For `COC(c1cccnc1)n1nc(N)c2cc(C3C(C#N)=C(C)NC(C)=C3C#N)ccc21` (centres unmarked) [compound 110, 4-[3-amino-1-(methoxy-3-pyridinylmethyl)-1H-indazol-5-yl]-1,4-dihydro-2,6-dimethyl-3,5-pyridinedicarbonitrile], the IC50 lay in the range of 100 to 500 nM.

On to `CC1=C(C#N)C(c2ccc3[nH]nc(-c4ccc(N5CCNCC5)cc4)c3c2)C(C#N)=C(C)N1` [compound 111, 1,4-dihydro-2,6-dimethyl-4-[3-[4-(1-piperazinyl)phenyl]-1H-indazol-5-yl]-3,5-pyridinedicarbonitrile], for which the 50% inhibitory concentration (IC50) is less than 100 nM.

`CC1=C(C#N)C(c2ccc3[nH]nc(NCCO)c3c2)C(C#N)=C(C)N1` [compound 118, 1,4-dihydro-4-[3-[(2-hydroxyethyl)amino]-1H-indazol-5-yl]-2,6-dimethyl-3,5-pyridinedicarbonitrile]: the IC50 is less than 100 nM.

With `CC1=C(C#N)C(c2ccc3c(c2)c(NCCO)nn3C(=O)OC(C)(C)C)C(C#N)=C(C)N1` [compound 119, 5-(3,5-dicyano-1,4-dihydro-2,6-dimethyl-4-pyridinyl)-3-[(2-hydroxyethyl)-amino]-1H-indazole-1-carboxylic acid, 1,1-dimethylethyl ester], the half-inhibitory concentration (IC50) is less than 100 nM.

Regarding `CC1=C(C#N)C(c2ccc3[nH]nc(NCc4cccnc4)c3c2)C(C#N)=C(C)N1` [compound 120, 1,4-dihydro-2,6-dimethyl-4-[3-[(3-pyridinylmethyl)amino]-1H-indazol-5-yl]-3,5-pyridinedicarbonitrile], the IC50 was less than 100 nM.

Regarding `COC(=O)Nc1ccc(-c2n[nH]c3ccc(C4C(C#N)=C(C)NC(C)=C4C#N)cc23)cc1` [compound 123, [4-[5-(3,5-dicyano-1,4-dihydro-2,6-dimethyl-4-pyridinyl)-1H-indazol-3-yl]-phenyl]-carbamic acid methyl ester], the IC50 is 500 to 2500 nM.

Regarding `CC1=C(C#N)C(c2ccc3[nH]nc(C(=O)NCCN4CCCC4)c3c2)C(C#N)=C(C)N1` [compound 124, 5-(3,5-dicyano-1,4-dihydro-2,6-dimethyl-4-pyridinyl)-N-[2-(1-pyrrolidinyl)ethyl]-1H-indazole-3-carboxamide], the IC50 is less than 100 nM.

As to `CC1=C(C#N)C(c2ccc3[nH]nc(C(=O)NCCC4CCCN4C)c3c2)C(C#N)=C(C)N1` (centres unmarked) [compound 125, 5-(3,5-dicyano-1,4-dihydro-2,6-dimethyl-4-pyridinyl)-N-[2-(1-methyl-2-pyrrolidinyl)ethyl]-1H-indazole-3-carboxamide], the half-inhibitory concentration (IC50) is less than 100 nM.

With `CC1=C(C#N)C(c2ccc3[nH]nc(NCc4ccc([N+](=O)[O-])cc4)c3c2)C(C#N)=C(C)N1` [compound 127, 1,4-dihydro-2,6-dimethyl-4-[3-[[(4-nitrophenyl)methyl]amino]-1H-indazol-5-yl]-3,5-pyridinedicarbonitrile], the IC50 was in the range of 500 to 2500 nM.

For the compound `CC1=C(C#N)C(c2ccc3[nH]nc(NCc4ccc(N)cc4)c3c2)C(C#N)=C(C)N1` [compound 128, 4-[3-[[(4-aminophenyl)methyl]amino]-1H-indazol-5-yl]-1,4-dihydro-2,6-dimethyl-3,5-pyridinedicarbonitrile], the half-inhibitory concentration (IC50) is less than 100 nM.

Turning to `CC1=C(C#N)C(c2ccc3[nH]nc(NC(=O)c4ccccc4)c3c2)C(C#N)=C(C)N1` [compound 129, N-[5-(3,5-dicyano-1,4-dihydro-2,6-dimethyl-4-pyridinyl)-1H-indazol-3-yl]-benzamide], the IC50 was less than 100 nM.

For the compound `CC1=C(C#N)C(c2ccc3[nH]nc(CN4CCN(c5ccncc5)CC4)c3c2)C(C#N)=C(C)N1` [compound 130, 1,4-dihydro-2,6-dimethyl-4-[3-[[4-(4-pyridinyl)-1-piperazinyl]methyl]-1H-indazol-5-yl]-3,5-pyridinedicarbonitrile], the IC50 lay in the range of 500 to 2500 nM.
